Data taken from ChEMBL document CHEMBL5543083, “3,5-Disubstituted-thiazolidine-2,4-dione hybrids as antidiabetic agents: Design, synthesis, in-vitro and In vivo evaluation” (Eur J Med Chem, 2024).
In brackets after ≈: the same amount, converted by molar mass.

Legend:
PANC-1 [1] = assay: Cytotoxicity against human PANC-1 cells assessed as inhibition of cell growth; assay type: functional, cell-based; details: Homo sapiens, PANC-1; read-out: IC50
Alpha-amylase = target: T1, Alpha-amylase (Sus scrofa domesticus, UniProt Q7M328); assay: Inhibition of porcine pancreatic Alpha-amylase using starch as substrate preincubated for 10 mins followed by substrate addition and measured after 15 mins by Bio-rad microplate reader analysis
T1 sequence (Q7M328 whole entry): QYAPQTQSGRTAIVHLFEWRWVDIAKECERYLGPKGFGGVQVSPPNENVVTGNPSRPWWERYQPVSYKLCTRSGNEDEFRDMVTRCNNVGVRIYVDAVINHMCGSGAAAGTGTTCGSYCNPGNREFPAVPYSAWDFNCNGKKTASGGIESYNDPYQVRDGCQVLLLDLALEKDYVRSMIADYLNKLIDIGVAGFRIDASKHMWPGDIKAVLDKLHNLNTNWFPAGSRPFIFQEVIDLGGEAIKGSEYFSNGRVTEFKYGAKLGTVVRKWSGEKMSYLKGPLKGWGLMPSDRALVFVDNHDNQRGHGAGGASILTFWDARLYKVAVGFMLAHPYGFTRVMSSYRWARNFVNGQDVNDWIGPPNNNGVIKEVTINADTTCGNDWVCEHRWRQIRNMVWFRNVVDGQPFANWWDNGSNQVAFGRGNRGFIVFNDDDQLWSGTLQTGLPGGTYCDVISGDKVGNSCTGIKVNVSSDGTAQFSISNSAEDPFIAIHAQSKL

PANC-1 [2] = assay: Induction of ROS production in high glucose-induced human PANC-1 cells assessed as maximum fluorescence intensity at 10 uM incubated for 30 mins DCFDA-staining based flow cytometry analysis (reference value: 15.09); assay type: functional; details: 0.5 h
[3] = Antioxidant activity assessed as DPPH radical scavenging activity measured for 30 mins by spectrophotometric analysis; assay type: functional; details: read-out: IC50
Alpha-glucosidase = Alpha-glucosidase (Saccharomyces cerevisiae S288c, UniProt P53341+P38158+P07265); assay: Inhibition of yeast Alpha glucosidase 4-nitrophenyl-alpha-D-glucopyranoside incubated for 15 to 20 mins by Bio-rad microplate reader analysis; assay type: protein assay
Alpha amylase = target: T2, Alpha amylase (Homo sapiens, UniProt P0DUB6); assay: Inhibition of Alpha-amylase (unknown origin); assay type: protein assay
T2 sequence (P0DUB6 whole entry): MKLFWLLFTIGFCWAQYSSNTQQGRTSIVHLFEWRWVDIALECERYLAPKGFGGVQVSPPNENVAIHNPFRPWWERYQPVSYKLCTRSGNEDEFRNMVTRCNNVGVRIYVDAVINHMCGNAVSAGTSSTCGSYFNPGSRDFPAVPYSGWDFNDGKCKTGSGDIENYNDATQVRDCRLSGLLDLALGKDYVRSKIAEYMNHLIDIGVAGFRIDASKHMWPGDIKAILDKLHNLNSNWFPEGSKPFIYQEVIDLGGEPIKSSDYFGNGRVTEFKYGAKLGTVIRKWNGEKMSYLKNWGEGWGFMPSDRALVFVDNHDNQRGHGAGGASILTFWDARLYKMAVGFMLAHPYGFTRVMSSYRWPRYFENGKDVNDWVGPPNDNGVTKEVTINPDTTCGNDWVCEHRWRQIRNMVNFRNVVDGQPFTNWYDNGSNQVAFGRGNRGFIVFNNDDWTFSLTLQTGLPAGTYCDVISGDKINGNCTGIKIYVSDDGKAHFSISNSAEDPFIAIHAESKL

`O=C1S/C(=C\c2ccc(-c3ccccc3)cc2)C(=O)N1Cc1cccc([N+](=O)[O-])c1` showed an IC50 (PANC-1 [1]) of 126 µM, an IC50 (Alpha-amylase; read-out: IC50) of 82.2 µM and a Flu intensity (PANC-1 [2]) of 23092. It also gave an IC50 [3] of 32.6 µM and an IC50 (Alpha-glucosidase) of 15.37 µM.

For `COc1ccc(OC)c(/C=C2\SC(=O)N(Cc3cccc([N+](=O)[O-])c3)C2=O)c1`, the IC50 (PANC-1 [1]) was 62.6 µM, the IC50 (Alpha-amylase; read-out: IC50) was 48.1 µM and the Flu intensity (PANC-1 [2]) was 58455. The IC50 [3] was 41.8 µM and the IC50 (Alpha-glucosidase) was 201 µM.

`COc1cc(OC)c(OC)cc1/C=C1\SC(=O)N(Cc2cccc([N+](=O)[O-])c2)C1=O` gave an IC50 (PANC-1 [1]) of 203 µM, an IC50 (Alpha-amylase; read-out: IC50) of 30.8 µM and a Flu intensity (PANC-1 [2]) of 25238. For the same compound, the IC50 [3] was 30.6 µM and the IC50 (Alpha-glucosidase) was 54.01 µM.

For `O=C1O[C@H]([C@@H](O)CO)C(O)=C1O` [ASCORBIC ACID], the IC50 (Alpha-amylase) was “Not Active” and the IC50 [3] was 25.1 µM.

`COc1cc(/C=C2\SC(=O)N(Cc3cccc([N+](=O)[O-])c3)C2=O)cc(OC)c1OC` showed an IC50 (PANC-1 [1]) of 195 µM, an IC50 (Alpha-amylase; read-out: IC50) of 39.3 µM and an IC50 [3] of 68 µM. The IC50 (Alpha-glucosidase) was 39.68 µM.

`COc1cc(/C=C2\SC(=O)N(Cc3cccc([N+](=O)[O-])c3)C2=O)ccc1O` showed an IC50 (PANC-1 [1]) of 190 µM, an IC50 (Alpha-amylase; read-out: IC50) of 40.5 µM and a Flu intensity (PANC-1 [2]) of 66221. The IC50 [3] was 38.1 µM and the IC50 (Alpha-glucosidase) was 19.73 µM.

For `COc1ccc(/C=C2\SC(=O)N(Cc3cccc([N+](=O)[O-])c3)C2=O)c(OC)c1`, the IC50 (PANC-1 [1]) was 166 µM, the IC50 (Alpha-amylase; read-out: IC50) was 30.2 µM and the Flu intensity (PANC-1 [2]) was 37797. It also gave an IC50 [3] of 32.1 µM and an IC50 (Alpha-glucosidase) of 65.52 µM.

For `N#Cc1ccccc1-c1ccc(N2C(=O)S/C(=C\c3ccccc3Oc3ccccc3)C2=O)cc1`, the IC50 (Alpha amylase) was 0.13 µg/mL (≈ 0.274 µM).

Work on `COc1cc(OC)c(/C=C2\SC(=O)N(Cc3cccc([N+](=O)[O-])c3)C2=O)c(OC)c1` yielded an IC50 (PANC-1 [1]) of 178 µM, an IC50 (Alpha-amylase; read-out: IC50) of 44.6 µM and a Flu intensity (PANC-1 [2]) of 22596. The IC50 [3] was 28.4 µM and the IC50 (Alpha-glucosidase) was 11.37 µM.

With `O=C1S/C(=C\c2ccc(O)cc2)C(=O)N1Cc1cccc([N+](=O)[O-])c1` the IC50 (PANC-1 [1]) was 32 µM, the IC50 (Alpha-amylase; read-out: IC50) was 42.9 µM and the Flu intensity (PANC-1 [2]) was 35829. It also gave an IC50 [3] of 34.9 µM and an IC50 (Alpha-glucosidase) of 29.28 µM.

Compound `COc1ccc(/C=C2\SC(=O)N(Cc3cccc([N+](=O)[O-])c3)C2=O)cc1O` has an IC50 (PANC-1 [1]) of 215 µM, an IC50 (Alpha-amylase; read-out: IC50) of 28 µM and a Flu intensity (PANC-1 [2]) of 72737. The IC50 [3] was 70.9 µM and the IC50 (Alpha-glucosidase) was 32.94 µM.
